Earlier results on 2 compounds are cited in patent US7105170B2, “Latent human tuberculosis model, diagnostic antigens, and methods of use” (The United States of America as represented by the …, priority 2001, dated 2006).

The subject of the series is M. tuberculosis bacilli. The settings on record: non-replicating persistent lower oxygen state (NRP2).

Take `Cc1ncc([N+](=O)[O-])n1CCO` [metronidazole]: the “alterations in drug susceptibility” value was “sensitive”.

As to `O=C(O)c1cn(C2CC2)c2cc(N3CCNCC3)c(F)cc2c1=O` [ciprofloxicin], the “alterations in drug susceptibility” value is recorded as “resistant”.
